{"source": "paper PMC4898059", "about": "(ACS infectious diseases, 2016)", "key": {"MRSA [1]": {"tested_on": "MRSA", "assay": "Neutropenic thigh MRSA infection mouse model", "type": "in vivo, Swiss Webster mice", "settings": "for Reduction of bacterial load in thigh: neutropenic mice, 100 mg/kg SC at 1 and 12 hr post infection"}, "[2]": {"tested_on": "Klebsiella pneumoniae (ATCC 13883)", "assay": "MIC, K. pneumoniae", "settings": "for MIC: Klebsiella pneumoniae"}, "MRSA [3]": {"tested_on": "MRSA", "assay": "Systemic MRSA infection mouse model", "type": "in vivo, Swiss Webster mice", "settings": "mice, IP infection, 100 mg/kg SC at 1, 12 and 24 hr post infection"}, "[4]": {"tested_on": "Enterococcus faecium (ATCC 19434)", "assay": "MIC, E. faecium"}, "MRSA (BAA 1762)": {"tested_on": "MRSA (BAA 1762)", "assay": "MIC, broth, methicillin-resistant S. aureus", "settings": "for MIC: Staphylococcus aureus, BAA1762|MRSA; for MIC MRSA: modal value of experimental triplicates"}, "MRSA cells [5]": {"tested_on": "MRSA cells", "assay": "Menaquinone-8", "type": "cell-based, Staphylococcus aureus", "settings": "1/10, 1/5, 1/3 and ½ MIC"}, "[6]": {"tested_on": "Haemophilus influenzae (ATCC 49427)", "assay": "MIC, H. influenzae", "settings": "for MIC: Haemophilus influenzae"}, "MRSA cells [7]": {"tested_on": "MRSA cells", "assay": "DHNA level in treated MRSA cells by LC/UV/MS", "settings": "MRSA cells treated with 8 µg/mL for 18 hr"}, "E. coli (ATCC 25922)": {"tested_on": "E. coli (ATCC 25922)", "assay": "MIC, E. coli", "settings": "for MIC: Escherichia coli"}, "MSSA (ATCC 25923)": {"tested_on": "MSSA (ATCC 25923)", "assay": "MIC, broth, methicillin-sensitive S. aureus", "settings": "for MIC: Staphylococcus aureus, ATCC25923|MSSA, read-out: MIC MSSA; for MIC MSSA: modal value of experimental triplicates"}, "[8]": {"tested_on": "Bacillus subtilis (ATCC 6051)", "assay": "MIC, B. subtilis"}, "[9]": {"tested_on": "Proteus mirabilis (ATCC 35659)", "assay": "MIC, P. mirabilis", "settings": "for MIC: Proteus mirabilis"}, "[10]": {"tested_on": "Pseudomonas aeruginosa (ATCC 27853)", "assay": "MIC, P. aeruginosa", "settings": "for MIC: Pseudomonas aeruginosa"}, "M. tuberculosis": {"tested_on": "M. tuberculosis", "settings": "ref Li, X., et al. ACS Med Chem Lett, 2011; cited from earlier work"}, "MRSA [11]": {"tested_on": "MRSA", "assay": "Agar MIC and colony morphology on tryptic soy agar", "type": "cell-based, Staphylococcus aureus"}, "saMenB": {"molecular_target": "saMenB (Staphylococcus aureus, UniProt Q5HH38)", "sequence (Q5HH38 whole entry)": "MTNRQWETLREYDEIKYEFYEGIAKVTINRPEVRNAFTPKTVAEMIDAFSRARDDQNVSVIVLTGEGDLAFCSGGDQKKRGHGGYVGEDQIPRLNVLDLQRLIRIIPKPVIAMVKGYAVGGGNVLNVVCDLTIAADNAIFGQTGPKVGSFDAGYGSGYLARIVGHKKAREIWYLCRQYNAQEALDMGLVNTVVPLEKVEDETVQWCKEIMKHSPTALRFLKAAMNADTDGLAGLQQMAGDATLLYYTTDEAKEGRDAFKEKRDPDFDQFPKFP", "assay": "Isothermal titration calorimetry with saMenB", "type": "binding, S. aureus"}}, "note": "Read-outs that look alike come from different tables or passages of the source."}
{"smiles": "COC(=O)C=CC(=O)c1ccc(Cl)cc1", "note": "[Compound 1, methyl 4-(4-chlorophenyl)-4-oxobut-2-enoate]", "values": [{"measurement": "Reduction of bacterial load in thigh", "setting": "MRSA [1]", "value": 3.1, "unit": "log CFU/gram tissue"}, {"measurement": "Dose dependence of bacterial burden in thigh", "setting": "MRSA [1]; neutropenic mice, 25, 50 and 100 mg/kg SC", "value": "dose dependent reduction"}, {"measurement": "MIC aerobic", "setting": "[2]; K. pneumoniae, aerobic", "value": "no activity"}, {"measurement": "MIC anaerobic", "setting": "[2]; K. pneumoniae, anaerobic (GasPak)", "value": 62.5, "unit": "µg/mL"}, {"measurement": "MIC", "setting": "[2]; ATCC13883, read-out: MIC + MK-4", "value": "> 60", "unit": "µg/mL"}, {"measurement": "MIC", "setting": "[2]; ATCC13883, read-out: MIC aerobic", "value": "> 60", "unit": "µg/mL"}, {"measurement": "MIC", "setting": "[2]; ATCC13883, read-out: MIC anaerobic", "value": 62.5, "unit": "µg/mL"}, {"measurement": "MIC", "setting": "[2]; ATCC13883, read-out: MIC capnophilic", "value": "> 60", "unit": "µg/mL"}, {"measurement": "Survival rate (days post infection)", "setting": "MRSA [3]", "value": 4.6, "unit": "days"}, {"measurement": "MIC", "setting": "[4]; ATCC19434, read-out: MIC + MK-4", "value": 31.5, "unit": "µg/mL"}, {"measurement": "MIC", "setting": "[4]; ATCC19434, read-out: MIC aerobic", "value": 4, "unit": "µg/mL"}, {"measurement": "MIC", "setting": "[4]; ATCC19434, read-out: MIC anaerobic", "value": 1.25, "unit": "µg/mL"}, {"measurement": "MIC", "setting": "[4]; ATCC19434, read-out: MIC capnophilic", "value": 2.5, "unit": "µg/mL"}, {"measurement": "MIC", "setting": "MRSA (BAA 1762); read-out: MIC + MK-4", "value": "> 60", "unit": "µg/mL"}, {"measurement": "MIC", "setting": "MRSA (BAA 1762); read-out: MIC MRSA", "value": 0.75, "unit": "µg/mL"}, {"measurement": "MIC", "setting": "MRSA (BAA 1762); read-out: MIC aerobic", "value": 0.75, "unit": "µg/mL"}, {"measurement": "MIC", "setting": "MRSA (BAA 1762); read-out: MIC anaerobic", "value": 0.37, "unit": "µg/mL"}, {"measurement": "MIC", "setting": "MRSA (BAA 1762); read-out: MIC capnophilic", "value": 0.37, "unit": "µg/mL"}, {"measurement": "Change in MK-8 with increasing concentration", "setting": "MRSA cells [5]", "value": "dose dependent decrease"}, {"measurement": "MIC capnophilic", "setting": "[6]; H. influenzae, capnophilic (candle jar)", "value": 0.25, "unit": "µg/mL"}, {"measurement": "MIC", "setting": "[6]; ATCC49427, read-out: MIC + MK-4", "value": "> 60", "unit": "µg/mL"}, {"measurement": "MIC", "setting": "[6]; ATCC49427, read-out: MIC capnophilic", "value": 0.25, "unit": "µg/mL"}, {"measurement": "DHNA in treated cells", "setting": "MRSA cells [7]", "value": "could not be detected"}, {"measurement": "MIC aerobic", "setting": "E. coli (ATCC 25922); E. coli, aerobic", "value": "no activity"}, {"measurement": "MIC", "setting": "E. coli (ATCC 25922); ATCC25922, read-out: MIC + MK-4", "value": "> 60", "unit": "µg/mL"}, {"measurement": "MIC", "setting": "E. coli (ATCC 25922); ATCC25922, read-out: MIC aerobic", "value": "> 60", "unit": "µg/mL"}, {"measurement": "MIC", "setting": "E. coli (ATCC 25922); ATCC25922, read-out: MIC anaerobic", "value": 15.5, "unit": "µg/mL"}, {"measurement": "MIC", "setting": "E. coli (ATCC 25922); ATCC25922, read-out: MIC capnophilic", "value": 15.5, "unit": "µg/mL"}, {"measurement": "MIC", "setting": "MSSA (ATCC 25923)", "value": 0.35, "unit": "µg/mL"}, {"measurement": "MIC", "setting": "[8]; ATCC6051, read-out: MIC + MK-4", "value": "> 60", "unit": "µg/mL"}, {"measurement": "MIC", "setting": "[8]; ATCC6051, read-out: MIC aerobic", "value": 8, "unit": "µg/mL"}, {"measurement": "MIC", "setting": "[8]; ATCC6051, read-out: MIC anaerobic", "value": 2, "unit": "µg/mL"}, {"measurement": "MIC", "setting": "[8]; ATCC6051, read-out: MIC capnophilic", "value": 4, "unit": "µg/mL"}, {"measurement": "MIC aerobic", "setting": "[9]; P. mirabilis, aerobic", "value": "no activity"}, {"measurement": "MIC", "setting": "[9]; ATCC35659, read-out: MIC + MK-4", "value": 31.5, "unit": "µg/mL"}, {"measurement": "MIC", "setting": "[9]; ATCC35659, read-out: MIC aerobic", "value": "> 60", "unit": "µg/mL"}, {"measurement": "MIC", "setting": "[9]; ATCC35659, read-out: MIC anaerobic", "value": 12.5, "unit": "µg/mL"}, {"measurement": "MIC", "setting": "[9]; ATCC35659, read-out: MIC capnophilic", "value": 12.5, "unit": "µg/mL"}, {"measurement": "MIC aerobic", "setting": "[10]; P. aeruginosa, aerobic", "value": "no activity"}, {"measurement": "MIC anaerobic", "setting": "[10]; P. aeruginosa, anaerobic (GasPak)", "value": "no activity"}, {"measurement": "MIC capnophilic", "setting": "[10]; P. aeruginosa, capnophilic (candle jar)", "value": "no activity"}, {"measurement": "MIC", "setting": "[10]; ATCC27853, read-out: MIC aerobic", "value": "> 60", "unit": "µg/mL"}, {"measurement": "MIC", "setting": "[10]; ATCC27853, read-out: MIC anaerobic", "value": "> 60", "unit": "µg/mL"}, {"measurement": "MIC", "setting": "[10]; ATCC27853, read-out: MIC capnophilic", "value": "> 60", "unit": "µg/mL"}, {"measurement": "MIC aerobic", "setting": "M. tuberculosis", "value": 0.64, "unit": "µg/mL"}, {"measurement": "Colony morphology", "setting": "MRSA [11]; MRSA on TSA with 4 µg/mL (½ agar MIC), 48 hr", "value": "SCV phenotype"}, {"measurement": "Growth with MK-4 complementation", "setting": "MRSA [11]; MRSA on TSA with 16 µg/mL (2x agar-MIC) and 10 µM MK-4", "value": "wild-type growth"}, {"measurement": "Agar MIC", "setting": "MRSA [11]; MRSA on tryptic soy agar, no growth after 72 hr", "value": 8, "unit": "µg/mL"}]}
{"smiles": "Cc1onc(-c2ccccc2)c1C(=O)N[C@@H]1C(=O)N2[C@@H]1SC(C)(C)[C@@H]2C(=O)O", "note": "[Oxacillin, reference compound]", "values": [{"measurement": "Reduction of bacterial load in thigh", "setting": "MRSA [1]", "value": "minimal effect"}, {"measurement": "Survival rate (days post infection)", "setting": "MRSA [3]", "value": "1.5 to 1.6", "unit": "days"}, {"measurement": "MIC", "setting": "MRSA (BAA 1762); read-out: MIC MRSA", "value": "> 128", "unit": "µg/mL"}, {"measurement": "MIC", "setting": "MSSA (ATCC 25923)", "value": 0.1, "unit": "µg/mL"}]}
{"smiles": "COC(=O)C=CC(=O)c1ccc([N+](=O)[O-])cc1", "note": "[Compound 4]", "values": [{"measurement": "MIC MRSA", "setting": "MRSA (BAA 1762)", "value": 4, "unit": "µg/mL"}, {"measurement": "MIC MSSA", "setting": "MSSA (ATCC 25923)", "value": 4, "unit": "µg/mL"}]}
{"smiles": "COC(=O)C=CC(=O)c1ccc(Cl)cc1Cl", "note": "[Compound 5]", "values": [{"measurement": "MIC MRSA", "setting": "MRSA (BAA 1762)", "value": 2, "unit": "µg/mL"}, {"measurement": "MIC MSSA", "setting": "MSSA (ATCC 25923)", "value": 1, "unit": "µg/mL"}]}
{"smiles": "COC(=O)C=CC(=O)c1ccc(F)cc1", "note": "[Compound 2]", "values": [{"measurement": "MIC MRSA", "setting": "MRSA (BAA 1762)", "value": 12, "unit": "µg/mL"}, {"measurement": "MIC MSSA", "setting": "MSSA (ATCC 25923)", "value": 8, "unit": "µg/mL"}]}
{"smiles": "CN[C@H](CC(C)C)C(=O)N[C@H]1C(=O)N[C@@H](CC(N)=O)C(=O)N[C@H]2C(=O)N[C@H]3C(=O)N[C@H](C(=O)N[C@H](C(=O)O)c4cc(O)cc(O)c4-c4cc3ccc4O)[C@H](O)c3ccc(c(Cl)c3)Oc3cc2cc(c3O[C@@H]2O[C@H](CO)[C@@H](O)[C@H](O)[C@H]2O[C@H]2C[C@](C)(N)[C@H](O)[C@H](C)O2)Oc2ccc(cc2Cl)[C@H]1O", "note": "[Vancomycin, reference compound]", "values": [{"measurement": "Reduction of bacterial load in thigh", "setting": "MRSA [1]", "value": 4.2, "unit": "log CFU/gram tissue"}, {"measurement": "Survival rate (days post infection)", "setting": "MRSA [3]", "value": 5.8, "unit": "days"}, {"measurement": "MIC", "setting": "MRSA (BAA 1762); read-out: MIC MRSA", "value": 4, "unit": "µg/mL"}, {"measurement": "MIC", "setting": "MSSA (ATCC 25923)", "value": 2, "unit": "µg/mL"}]}
{"smiles": "O=C(O)C=CC(=O)c1ccc(Cl)cc1", "note": "[Compound 6]", "values": [{"measurement": "MIC MRSA", "setting": "MRSA (BAA 1762)", "value": "> 60", "unit": "µg/mL"}, {"measurement": "MIC MSSA", "setting": "MSSA (ATCC 25923)", "value": "> 60", "unit": "µg/mL"}]}
{"smiles": "CC(C)(COP(=O)(O)OP(=O)(O)OC[C@H]1O[C@@H](n2cnc3c(N)ncnc32)[C@H](O)[C@@H]1OP(=O)(O)O)[C@@H](O)C(=O)NCCC(=O)NCCS", "note": "[CoA, coenzyme A]", "values": [{"measurement": "Kd", "setting": "saMenB", "value": "25 ± 4", "unit": "µM"}]}
{"smiles": "COC(=O)C=CC(=O)c1ccc(Br)cc1", "note": "[Compound 3]", "values": [{"measurement": "MIC MRSA", "setting": "MRSA (BAA 1762)", "value": 16, "unit": "µg/mL"}, {"measurement": "MIC MSSA", "setting": "MSSA (ATCC 25923)", "value": 8, "unit": "µg/mL"}]}
